Results as given in patent publication US10544117B2, “5-hydroxytryptamine receptor 7 activity modulators and their method of use” (Temple University—Of the Commonwealth System of Higher …, priority 2014, dated 2020).
pIC50: −log10 of the molar value.

Target: Serotonin 5HT7 receptors (Homo sapiens (Human), UniProt P34969)
Assay: Radiolabel Binding Studies for Serotonin 5HT7 receptors
Conditions: for pIC50: membranes of cells expressing recombinant 5HT7 receptors; for inhibition at 10 µM: read-out: 5-HT7 % inhib @ 10 uM
Protocol: Radiolabel Binding Studies for Serotonin 5HT7 receptors, method 1:
Eleven dilutions (5× assay concentration) of the compound of the disclosure and chlorpromazine are prepared in the Assay Buffer by serial dilution to yield final corresponding assay concentrations ranging from 10 pM to 10 μM.
(§1) A stock concentration of 5 nM [^3H]LSD (lysergic acid diethyl amide) is prepared in 50 mM Tris-HCl, 10 mM MgCl2, 1 mM EDTA, pH 7.4 (Assay Buffer). Aliquots (50 μl) of radioligand are dispensed into the wells of a 96-well plate containing 100 μl of Assay Buffer. Duplicate 50-μl aliquots of the compound of the disclosure test and chlorpromazine positive control reference compound serial dilutions are added.
Membrane fractions of cells expressing recombinant 5HT7 receptors (50 μL) are dispensed into each well. The membranes are prepared from stably transfected cell lines expressing 5HT7 receptors cultured on 10-cm plates by harvesting PBS-rinsed monolayers, resuspending and lysing in chilled, hypotonic 50 mM Tris-HCl, pH 7.4, centrifuging at 20,000×g, decanting the supernatant and storing at −80° C.; the membrane preparations are resuspended in 3 ml of chilled Assay Buffer and homogenized by several passages through a 26 gauge needle before using in the assay.
The 250-μl reactions are incubated at room temperature for 1.5 hours, then harvested by rapid filtration onto 0.3% polyethyleneimine-treated, 96-well filter mats using a 96-well Filtermate harvester. Four rapid 500-μl washes are performed with chilled Assay Buffer to reduce non-specific binding. The filter mats are dried, then scintillant is added to the filters and the radioactivity retained on the filters is counted in a Microbeta scintillation counter.
Raw data (dpm) representing total radioligand binding (i.e., specific+non-specific binding) are plotted as a function of the logarithm of the molar concentration of the competitor (i.e., test or reference compound).
Radiolabel Binding Studies for Serotonin 5-HT7 receptors, method 2:
as §1, with “[^3H]-5-Hydroxytryptamine ([^3H]-5HT)” for “[^3H]LSD (lysergic acid diethyl amide)”

| SMILES | pIC50 | inhibition at 10 µM [%] | 5-HT7 % inhib @ 10 uM (single concentration of 10 uM, percent inhibition of radioligand binding) [%] |
| --- | --- | --- | --- |
| O=C1OC(CCN2CCN(c3ccc(Cl)cn3)CC2)CC12CCCCC2 (centres unmarked) [Entry 160145] | 7.48 |  | 96.7 |
| O=C1OC(CCN2CCN(c3ccc4[nH]ccc4c3)CC2)CC12CCCCC2 (centres unmarked) [Entry 160146] | 7.19 | 97.9 |  |
| O=C1OC(CCN2CCN(c3ccc4[nH]ccc4c3)CC2)CC12CCCC2 (centres unmarked) [Entry 160147] |  | 9 |  |
| O=C1OC(CCN2CCN(c3ccc4[nH]c(=O)[nH]c4c3)CC2)CC12CCCCC2 (centres unmarked) [Entry 160150] | 5.91 | 76.9 |  |
| O=C1OC(CCN2CCN(c3ccc4[nH]c(=O)[nH]c4c3)CC2)CC12CCCC2 (centres unmarked) [Entry 160151] |  | 35.9 |  |
| O=C1OC(CCN2CCN(c3ccc4[nH]c(=O)[nH]c4c3)CC2)CC12CCC2 (centres unmarked) [Entry 160152] | 5.65 | 59.5 |  |
| O=C1OC(CCN2CCN(c3ccnc(Cl)c3)CC2)CC12CCCCC2 (centres unmarked) [Entry 160153] | 5.36 | 58.2 |  |
| O=C1OC(CCN2CCN(c3cc(Cl)ccn3)CC2)CC12CCCC2 (centres unmarked) [Entry 230010] |  | 33.5 |  |
| N#Cc1ccnc(N2CCN(CCC3CC4(CCCC4)C(=O)O3)CC2)c1 (centres unmarked) [Entry 230012] | 6.36 | 76.6 |  |
| O=C1OC(CCN2CCN(c3ccccc3O)CC2)CC12CCCC2 (centres unmarked) [Entry 230014] | 7.11 | 91.5 |  |
| COc1ccccc1N1CCN(CCC2CC3(CCC3)C(=O)O2)CC1 (centres unmarked) [Entry 230015] | 6.50 | 83.4 |  |
| COc1ccc(N2CCN(CC[C@H]3CC(C)(C)C(=O)O3)CC2)cc1 [Entry 230046] | 5.00 | 53.5 |  |
| CCC1(CC)CC(CCCN2CCN(c3ccc(C#N)cc3)CC2)OC1=O (centres unmarked) [Entry 230058] | 6.02 | 78.6 |  |
| CCC1(CC)CC(CCCN2CCN(c3ccc(O)cc3)CC2)OC1=O (centres unmarked) [Entry 230059] | 6.45 | 88.8 |  |
| CCC1(CC)CC(CCCN2CCN(c3ccc(OC)cc3)CC2)OC1=O (centres unmarked) [Entry 230060] | 5.00 | 43.6 |  |
| CCC1(CC)CC(CCCN2CCN(c3ccc(C)cc3)CC2)OC1=O (centres unmarked) [Entry 230061] | 6.77 | 94.9 |  |
| CCC1(CC)CC(CCCN2CCN(c3ccccn3)CC2)OC1=O (centres unmarked) [Entry 230063] | 7.03 | 98.9 |  |
| CCC1(CC)CC(CCN2CCN(c3ccc4nc(C)[nH]c4c3)CC2)OC1=O (centres unmarked) [Entry 230069] | 5.00 |  |  |
| CCC1(CC)CC(CCN2CCc3ccc(Cl)cc3C2)OC1=O (centres unmarked) [Entry 230070] | 8.12 | 100 |  |
| CCC1(CC)CC(CCN2CCc3ccc(F)cc3C2)OC1=O (centres unmarked) [Entry 230071] | 8.00 | 99.3 |  |

Second part, led by results:

| pIC50 | inhibition at 10 µM [%] | SMILES | 5-HT7 % inhib @ 10 uM (single concentration of 10 uM, percent inhibition of radioligand binding) [%] |
| --- | --- | --- | --- |
| 7.06 | 96.5 | O=C1OC(CCN2CCN(c3ccc4[nH]ccc4c3)CC2)CC12CCC2 (centres unmarked) [Entry 160148] |  |
| 6.30 | 84.7 | Nc1cc(N2CCN(CCC3CC4(CCCCC4)C(=O)O3)CC2)ccc1[N+](=O)[O-] (centres unmarked) [Entry 160149] |  |
|  | 33.2 | CS(=O)(=O)Nc1ccc(N2CCN(CCC3CC4(CCCC4)C(=O)O3)CC2)cc1 (centres unmarked) [Entry 230008] |  |
|  | 40.3 | O=C1OC(CCN2CCN(c3ccnc(Cl)c3)CC2)CC12CCCC2 (centres unmarked) [Entry 230011] |  |
| 6.84 | 90.9 | COc1ccccc1N1CCN(CCC2CC3(CCCC3)C(=O)O2)CC1 (centres unmarked) [Entry 230013] |  |
| 6.52 | 84.7 | O=C1OC(CCN2CCN(c3ccccc3O)CC2)CC12CCC2 (centres unmarked) [Entry 230016] |  |
| 5.00 | 42.6 | COc1ccc(N2CCN(CC[C@@H]3CC(C)(C)C(=O)O3)CC2)cc1 [Entry 230039] |  |
| 7.26 | 98.5 | CCC1(CC)CC(CCCN2CCN(c3ccccc3)CC2)OC1=O (centres unmarked) [Entry 230057] |  |
| 7.92 | 98.6 | CCC1(CC)CC(CCCN2CCN(c3ccccc3C(C)C)CC2)OC1=O (centres unmarked) [Entry 230062] |  |
| 5.00 | 44 | CCC1(CC)CC(CCN2CCN(c3ccc4nc(C(F)(F)F)[nH]c4c3)CC2)OC1=O (centres unmarked) [Entry 230068] |  |
| 5.24 | 51 | CCC1(CC)C[C@H](CCN2CCN(c3ccncc3)CC2)OC1=O [Entry 230083] |  |
